Reference: patent publication US9796733B2, “Imidazo-pyrazine derivatives useful as soluble guanylate cyclase activators” (Merck Sharp & Dohme Corp., priority 2014, dated 2017)

Molecular target: T1, sGC α1/β1 heterodimer (Homo sapiens, UniProt Q02108+Q02153)
T1 construct: expressed in transfected cells; host or cells: CHO-K1 (clone #7, CHO-K1/sGC)
T1 sequence (Q02108 1-690): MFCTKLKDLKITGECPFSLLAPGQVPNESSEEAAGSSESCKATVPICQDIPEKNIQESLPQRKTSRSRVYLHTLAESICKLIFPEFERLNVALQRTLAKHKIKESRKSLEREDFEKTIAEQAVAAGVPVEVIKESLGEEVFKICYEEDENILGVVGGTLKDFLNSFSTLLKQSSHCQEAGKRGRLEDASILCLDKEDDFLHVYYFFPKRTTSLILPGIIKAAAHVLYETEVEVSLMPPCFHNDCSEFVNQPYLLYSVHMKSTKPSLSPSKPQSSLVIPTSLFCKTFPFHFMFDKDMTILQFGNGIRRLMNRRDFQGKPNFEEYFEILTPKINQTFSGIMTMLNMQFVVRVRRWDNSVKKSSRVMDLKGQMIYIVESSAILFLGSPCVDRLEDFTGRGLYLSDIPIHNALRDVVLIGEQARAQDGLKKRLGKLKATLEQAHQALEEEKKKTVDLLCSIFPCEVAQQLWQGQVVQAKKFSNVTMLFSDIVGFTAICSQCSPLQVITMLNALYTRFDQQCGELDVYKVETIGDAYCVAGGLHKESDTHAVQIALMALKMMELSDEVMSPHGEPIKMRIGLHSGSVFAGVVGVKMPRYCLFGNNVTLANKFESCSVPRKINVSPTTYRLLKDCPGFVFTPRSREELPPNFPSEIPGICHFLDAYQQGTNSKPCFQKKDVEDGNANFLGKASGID
T1 sequence (Q02153 1-619): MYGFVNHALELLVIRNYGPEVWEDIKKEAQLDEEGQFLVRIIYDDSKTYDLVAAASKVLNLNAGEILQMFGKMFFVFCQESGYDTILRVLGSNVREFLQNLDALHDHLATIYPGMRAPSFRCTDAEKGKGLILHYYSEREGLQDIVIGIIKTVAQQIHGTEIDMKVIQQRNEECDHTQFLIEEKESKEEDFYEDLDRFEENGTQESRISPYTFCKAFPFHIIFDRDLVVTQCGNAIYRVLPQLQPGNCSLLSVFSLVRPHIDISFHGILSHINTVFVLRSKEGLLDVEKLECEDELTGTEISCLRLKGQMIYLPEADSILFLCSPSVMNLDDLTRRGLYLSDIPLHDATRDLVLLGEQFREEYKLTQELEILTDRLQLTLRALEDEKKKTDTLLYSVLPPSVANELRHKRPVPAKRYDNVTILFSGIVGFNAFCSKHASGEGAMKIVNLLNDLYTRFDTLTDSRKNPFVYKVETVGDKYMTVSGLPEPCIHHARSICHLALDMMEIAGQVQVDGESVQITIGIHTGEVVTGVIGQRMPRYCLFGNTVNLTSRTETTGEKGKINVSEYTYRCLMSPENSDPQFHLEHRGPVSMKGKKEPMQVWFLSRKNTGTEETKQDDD
Test: Cell-based sGC functional assay (CASA assay): cGMP generation in CHO-K1/sGC cells, HTRF detection
Details: for Emax: CHO-K1, percent activation relative to standard Compound A in CHO-K1/sGC cells, read-out: % Act.; for EC50: inflection point (IP) of cGMP generation in CHO-K1/sGC cells, 4P fit, activity expressed as percentage of Compound A
Excerpt: Biological Assay 1: Cell-Based sGC Functional Assay (CASA Assay)
sGC is a heme-containing enzyme that converts GTP to secondary messenger cGMP. Increases in cGMP levels affect several physiological processes including vasorelaxation through multiple downstream pathways. […] Heme-dependent activators (HDAs) preferentially activate sGC containing a ferrous heme group. To determine the effect of sGC activators on enzyme activity, the CASA assay was developed to monitor the generation of cGMP in a cell line that stably expresses the heterodimeric sGC protein.
A CHO-K1 cell line stably expressing the sGC α1/β1 heterodimer was generated using a standard transfection protocol. CHO-K1 cells were transfected with plasmids pIREShyghsGCal and pIRESneo-hsGCβ1 simultaneously using FUGENE reagent. Clones that stably express both subunits were selected with hygromycin and neomycin for 2 weeks. Clone #7 was chosen for the assay and was designated CHO-K1/sGC. CHO-K1/sGC cells were maintained in F-K12 medium containing 10% heat-inactivated Fetal Bovine Serum (FBS), 100 μg/mL penicillin/streptomycin, 0.5 mg/mL hygromycin and 0.25 mg/mL G418. The cells were then cryopreserved in LN2. On the day of the assay, cells thawed and resuspended in EBSS Assay Buffer (Sigma, E3024) supplemented with 5 mM MgCl2, 10 mM HEPES (4-(2-hydroxyethyl)piperazine-1-ethanesulfonic acid) and 0.05% BSA (bovine serum albumin) (EAB) and cell density was then adjusted to 4×10^5/mL with EAR IBMX (3-isobutyl-1-methylxanthin, 0.5 mM) was added to inhibit degradation of cGMP. Compounds were diluted from DMSO stock solutions and added to the assay at a final DMSO concentration of 2.5%. Cells were incubated with compounds in the presence and absence of 1 μM of Diethylenetriamine/nitric oxide adduct (DETA-NO; Sigma, 17018) for 1 hr at 37° C. At the end of the incubation period, the reaction was terminated and the cells were lysed with the detection reagents from Cisbio Kits. The level of intracellular cGMP was determined using an HTRF-based assay kit (CisBio, 62GM2PEC), which detects the displacement of a fluorescence labeled cGMP from its specific antibody. The cGMP produced by test compounds was directly compared to the maximum cGMP production (this value was set to equal 100% activation.) of the published sGC-HDA Compound A:
[drawing 597] (Example 1 in WO 2010/065275, published Jun. 10, 2010). The test compounds' activities were then expressed as a percentage of Compound A, the standard in every experiment. This percent activation was calculated either in the presence or absence of DETA-NO which was then plotted. IP and maximum fold induction was derived using ADA analysis software for 4P fit.
The compounds in the Examples of the instant invention had inflection points (IP) less than or equal to 10 μM and more particularly less than or equal to about 1 μM.

Row | Emax [%] | EC50 [nM] | SMILES
1 | 151 | 148 | Nc1nc(-c2cn3ccnc3c(CCCC(F)(F)F)n2)nc2c1C(c1cccc(C(F)(F)F)n1)(C1CC1)C(=O)N2 (single isomer, unassigned) [Example 368B, 4-amino-5-cyclopropyl-2-(8-(4,4,4-trifluorobutyl)imidazo[1,2-a]pyrazin-6-yl)-5-(6-(trifluoromethyl)pyridin-2-yl)-5H-pyrrolo[2,3-d]pyrimidin-6(7H)-one]
2 | 99 | 262 | Nc1nc(-c2cn3ccnc3c(CCCC(F)(F)F)n2)nc2c1C(c1ncc(C(F)(F)F)cc1Cl)(C1CC1)C(=O)N2 (single isomer, unassigned) [Example 370B, 4-amino-5-(3-chloro-5-(trifluoromethyl)pyridin-2-yl)-5-cyclopropyl-2-(8-(4,4,4-trifluorobutyl)imidazo[1,2-a]pyrazin-6-yl)-5H-pyrrolo[2,3-d]pyrimidin-6(7H)-one]
3 | 82 | 194 | Nc1nc(-c2cn3ccnc3c(CCCC(F)(F)F)n2)nc2c1C(c1ncc(Cl)cc1F)(C1CC1)C(=O)N2 (single isomer, unassigned) [Example 371A, 4-amino-5-(5-chloro-3-fluoropyridin-2-yl)-5-cyclopropyl-2-(8-(4,4,4-trifluorobutyl)imidazo[1,2-a]pyrazin-6-yl)-5H-pyrrolo[2,3-d]pyrimidin-6(7H)-one]
4 | 41 | 931 | Cc1cc(F)cnc1C1(C2CC2)C(=O)Nc2nc(-c3cn4ccnc4c(CCC(F)(F)C(F)(F)F)n3)nc(N)c21 (single isomer, unassigned) [Example 375B, 4-amino-5-cyclopropyl-5-(5-fluoro-3-methylpyridin-2-yl)-2-(8-(3,3,4,4,4-pentafluorobutyl)imidazo[1,2-a]pyrazin-6-yl)-5H-pyrrolo[2,3-d]pyrimidin-6(7H)-one]
5 | 127 | 180 | Cc1cc(C2(C3CC3)C(=O)Nc3nc(-c4cn5ccnc5c(CCC(F)(F)C(F)(F)F)n4)nc(N)c32)ncc1F (single isomer, unassigned) [Example 376B, 4-amino-5-cyclopropyl-5-(5-fluoro-4-methylpyridin-2-yl)-2-(8-(3,3,4,4,4-pentafluorobutyl)imidazo[1,2-a]pyrazin-6-yl)-5H-pyrrolo[2,3-d]pyrimidin-6(7H)-one]
6 | 90 | 86 | Cc1nc(C2(C3CC3)C(=O)Nc3nc(-c4cn5ccnc5c(CCCC(F)(F)F)n4)nc(N)c32)ccc1Cl (single isomer, unassigned) [Example 377B]

The remaining lines, values behind:

Row | SMILES | Emax [%] | EC50 [nM]
7 | Nc1nc(-c2cn3ccnc3c(CCC(F)(F)C(F)(F)F)n2)nc2c1C(c1cccnc1)(C1CC1)C(=O)N2 (single isomer, unassigned) [Example 359B, 4-amino-5-cyclopropyl-2-(8-(3,3,4,4,4-pentafluorobutyl)imidazo[1,2-a]pyrazin-6-yl)-5-(pyridin-3-yl)-5H-pyrrolo[2,3-d]pyrimidin-6(7H)-one] | 108 | 302
8 | CCCCc1nc(-c2nc(N)c3c(n2)NC(=O)C3(c2ccc(F)cc2)C2CCC2)cn2ccnc12 (single isomer, unassigned) [Example 361B, 4-amino-2-(8-butylimidazo[1,2-a]pyrazin-6-yl)5-cyclobutyl-5-(4-fluorophenyl)-5H-pyrrolo[2,3-d]pyrimidin-6(7H)-one] | 157 | 47
9 | Cc1nc(C2(C3CC3)C(=O)Nc3nc(-c4cn5ccnc5c(CCCC(F)(F)F)n4)nc(N)c32)ccc1F (single isomer, unassigned) [Example 362B, 4-amino-5-cyclopropyl-5-(5-fluoro-6-methylpyridin-2-yl)-2-(8-(4,4,4-trifluorobutyl)imidazo[1,2-a]pyrazin-6-yl)-5H-pyrrolo[2,3-d]pyrimidin-6(7H)-one] | 140 | 384
10 | Cc1nc(C2(C3CC3)C(=O)Nc3nc(-c4cn5ccnc5c(CCC(F)(F)C(F)(F)F)n4)nc(N)c32)ccc1F (single isomer, unassigned) [Example 363B, 4-amino-5-cyclopropyl-5-(5-fluoro-6-methylpyridin-2-yl)-2-(8-(3,3,4,4,4-pentafluorobutyl)imidazo[1,2-a]pyrazin-6-yl)-5H-pyrrolo[2,3-d]pyrimidin-6(7H)-one] | 186 | 244
11 | Cc1cc(Cl)cnc1C1(C2CC2)C(=O)Nc2nc(-c3cn4ccnc4c(CCCC(F)(F)F)n3)nc(N)c21 (single isomer, unassigned) [Example 364A, 4-amino-5-(5-chloro-3-methylpyridin-2-yl)-5-cyclopropyl-2-(8-(4,4,4-trifluorobutyl)imidazo[1,2-a]pyrazin-6-yl)-5H-pyrrolo[2,3-d]pyrimidin-6(7H)-one] | 138 | 273
12 | Cc1cncc(C2(C3CC3)C(=O)Nc3nc(-c4cn5ccnc5c(CCCC(F)(F)F)n4)nc(N)c32)n1 (single isomer, unassigned) [Example 365B, 4-amino-5-cyclopropyl-5-(6-methylpyrazin-2-yl)-2-(8-(4,4,4-trifluorobutyl)imidazo[1,2-a]pyrazin-6-yl)-5H-pyrrolo[2,3-d]pyrimidin-6(7H)-one] | 108 | 704
13 | Cc1cncc(C2(C3CC3)C(=O)Nc3nc(-c4cn5ccnc5c(CCC(F)(F)C(F)(F)F)n4)nc(N)c32)n1 (single isomer, unassigned) [Example 366B, 4-amino-5-cyclopropyl-5-(6-methylpyrazin-2-yl)-2-(8-(3,3,4,4,4-pentafluorobutyl)imidazo[1,2-a]pyrazin-6-yl)-5H-pyrrolo[2,3-d]pyrimidin-6(7H)-one] | 122 | 843
14 | CCCCc1nc(-c2nc(N)c3c(n2)NC(=O)C3(c2cc(C(F)(F)F)ccn2)C2CC2)cn2ccnc12 (single isomer, unassigned) [Example 367B, 4-amino-2-(8-butylimidazo[1,2-a]pyrazin-6-yl)-5-cyclopropyl-5-(4-(trifluoromethyl)pyridin-2-yl)-5H-pyrrolo[2,3-d]pyrimidin-6(7H)-one] | 170 | 155
